Legend:
[1] = target: T1, retinoid X receptor wild type (RXRwt) (Homo sapiens, UniProt P19793); test: luciferase reporter (CRBPII response element) activation in transfected HEK293T cells; type: cell-based
T1 construct: gene RXRA; full length RXRwt

[2] = target: T2, RXR variant Q275C;I310M;F313I (QCIMFI) (Homo sapiens, UniProt P19793, Q275C/I310M/F313I); test: luciferase reporter activation in transfected HEK293T cells; type: cell-based
T2 construct: gene RXRA; RXR variant LBD with RXR DBD (QCIMFI)
T2 sequence (P19793 1-462 Q275C/I310M/F313I): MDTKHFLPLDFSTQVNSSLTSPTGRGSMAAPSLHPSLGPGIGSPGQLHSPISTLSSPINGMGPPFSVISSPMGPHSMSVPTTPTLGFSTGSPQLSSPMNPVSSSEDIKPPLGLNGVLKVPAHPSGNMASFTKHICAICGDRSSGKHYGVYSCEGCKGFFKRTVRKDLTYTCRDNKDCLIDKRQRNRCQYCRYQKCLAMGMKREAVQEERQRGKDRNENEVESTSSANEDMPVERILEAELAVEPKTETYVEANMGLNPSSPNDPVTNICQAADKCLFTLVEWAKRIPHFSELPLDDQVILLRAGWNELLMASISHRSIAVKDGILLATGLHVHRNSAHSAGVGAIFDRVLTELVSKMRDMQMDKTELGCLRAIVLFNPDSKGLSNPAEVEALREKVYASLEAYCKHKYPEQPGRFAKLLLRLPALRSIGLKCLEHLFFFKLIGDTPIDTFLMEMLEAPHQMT

T1 sequence (P19793 whole entry): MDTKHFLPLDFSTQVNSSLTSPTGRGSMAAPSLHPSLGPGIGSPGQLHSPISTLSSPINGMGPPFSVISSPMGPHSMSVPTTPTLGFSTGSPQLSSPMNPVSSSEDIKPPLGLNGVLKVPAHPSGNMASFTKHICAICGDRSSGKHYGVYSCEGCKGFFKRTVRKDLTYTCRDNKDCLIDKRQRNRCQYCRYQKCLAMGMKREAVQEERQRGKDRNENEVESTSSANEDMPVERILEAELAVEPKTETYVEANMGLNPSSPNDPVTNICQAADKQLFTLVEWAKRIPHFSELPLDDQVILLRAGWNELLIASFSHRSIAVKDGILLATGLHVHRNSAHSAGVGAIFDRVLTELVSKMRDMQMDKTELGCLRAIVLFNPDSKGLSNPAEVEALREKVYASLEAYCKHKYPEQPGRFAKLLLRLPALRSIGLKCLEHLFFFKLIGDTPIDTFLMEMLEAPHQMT

## LG335
[1]
  EC50: 0.338 µM
[2]
  EC50: 0.038 µM
